The text below walks through data of patent publication US20250034116A1, “1,4-DIHETEROCYCLIC SUBSTITUTED AROMATIC RING OR AROMATIC HETEROCYCLIC COMPOUND AND USE THEREOF” (BeBetter Med Inc., priority 2022, published 2025).

In series [1] the test system is CYP enzymes in mouse liver microsomes (MLM). In words: Inhibition of 20-HETE production in mouse liver microsomes (MLM). In kind it is biochemical. The procedure:
Experimental principle: The inhibitory activity of 20-HETE production is evaluated by testing the inhibitory effects of the compound on human liver microsomes (HLM), rat liver microsomes (RLM), mouse liver microsomes (MLM), or […] CYP4 subtype enzymes (CYP4F2). This assay employs HLM, RLM, or MLM along with recombinant CYP4F2 (rCYP4F2) and recombinant CYP4A11 (rCYP4A11), which are […] CYP4 subtype enzymes, to detect the effects of the test compound at different concentrations on the metabolic rate of enzyme-specific substrates, to determine the inhibitory effects of the test compound on CYP enzymes in HLM, RLM, or MLM.
Experimental methods: Dissolve the test compound in DMSO, and subsequently dilute it with an acetonitrile and DMSO mixture (3:1). Add 2 μl of varying concentrations of the test compound and 100 μl of potassium phosphate buffer containing either liver microsomes or recombinant enzymes to a 96-well plate. After mixing well, transfer 30 μl to another well (in duplicate), add 15 μl of 400 μM substrate solution, and mix well again. Preheat at 37° C. for 10 minutes, and then add 15 μl of 6 mM NADPH and incubate at 37° C. for 25 minutes. After 25 minutes, add 160 μl of acetonitrile solution (containing 0.1 μg/ml internal standard) to stop the reaction. Mix well, centrifuge at 3500 g for 15 minutes, and then analyze the supernatant using LC-MS/MS.
Plot the compound concentration on the x-axis and the inhibition rate on the y-axis to draw the curve. Use GraphPad Prism 5 software to fit the curve and calculate the IC50. The formula is Y=Bottom+(Top−Bottom)/(1+10^((Log IC50−X)×HillSlope)). X represents the logarithmic concentration of the inhibitor, and Y represents the relative enzyme activity at a given inhibitor concentration (relative to the condition without the inhibitor).
Calculate the inhibition percentages at concentrations of 1000 nM, 500 nM, or 100 nM as well as the half-maximal inhibitory concentration (IC50) of the test compound from the above experiment.
A general note: Liver microsomes are vesicles of endoplasmic reticulum, rich in cytochrome P450 enzymes.

In series [2] the test system is CYP enzymes in human liver microsomes (HLM). Description: Inhibition of 20-HETE production in human liver microsomes (HLM). In kind it is biochemical. In short, it runs like this: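 LC-MS/MS read-out of 20-HETE formation, expressed as activity relative to no-inhibitor control and fitted to a Hill equation for IC50; percent inhibition also given at 1000, 500 or 100 nM. Enzyme sources: recombinant CYP4F2, recombinant CYP4A11, or human or mouse liver microsomes. Each is combined with compound and substrate (400 μM solution) and warmed 10 min at 37 °C, then incubated 25 min at 37 °C after adding NADPH (6 mM solution).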

The subject of series [3] is CYP enzymes in rat liver microsomes (RLM). Description: Inhibition of 20-HETE production in rat liver microsomes (RLM). In kind it is biochemical. A digest of the protocol: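 Test compounds were dissolved in DMSO, diluted in acetonitrile/DMSO (3:1), and 2 μl was mixed with 100 μl potassium phosphate buffer containing rat liver microsomes in a 96-well plate. Duplicate 30 μl aliquots received 15 μl of 400 μM substrate, were preheated at 37° C. for 10 minutes, then started with 15 μl of 6 mM NADPH for 25 minutes. LC-MS/MS measured 20-HETE formation.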

The nature of series [4]: Pharmacokinetic (PK) experiment, oral administration in rats. In kind it is in vivo, Male SD rats. Particulars: 20 mg/kg; for AUC(0-inf) / Cmax / Tmax / half-life / AUC(0-t): male, SD, rat, plasma; for AUC(0-t): read-out: AUC0-24. The procedure: Male SD rats, weighing 180-250 grams, were fasted overnight before testing. The test compound was dissolved in 30% sulfobutylether-β-cyclodextrin and administered orally at a dose of 20 mg/kg. Blood was collected from the tail vein at 15 minutes, 30 minutes, and 1, 2, 4, 6, 8, and 24 hours after administration. Approximately 0.3 ml of blood was collected at each time point, placed in a centrifuge tube containing K2-EDTA, and centrifuged (2000 g for 10 minutes at 4° C.) to take the plasma, which was then stored in an ultra-low temperature freezer at −70° C. or below. A 50 μL plasma sample was mixed with 135 μL of acetonitrile (containing 0.5 μg/mL internal standard) and vortexed for protein precipitation. After centrifugation, the supernatant was taken for LC-MS/MS analysis.

For the compound `O=C(C1CCC(O)C1)N1CCC(c2ccc(-c3cn[nH]c3)cc2F)CC1` (single isomer, unassigned) [Compound 145a, (4-(2-fluoro-4-(1H-pyrazol-4-yl)phenyl)piperidin-1-yl)(3-hydroxycyclopentyl) methanone], the “MLM (% inh @ 1000 nM)” value in series [1] came out at 60.45%. Further, the “HLM (% inh @ 100 nM)” value in series [2] was determined as 86.67%.
For the compound `O=C(C1CCC(O)C1)N1CCC(c2ccc(-c3cn[nH]c3)cc2F)CC1` (single isomer, unassigned) [Compound 145b, (4-(2-fluoro-4-(1H-pyrazol-4-yl)phenyl)piperidin-1-yl)(3-hydroxycyclopentyl) methanone], the “MLM (% inh @ 1000 nM)” value in series [1] worked out at 48.10%. In addition, the “HLM (% inh @ 100 nM)” value in series [2] amounted to 88.49%.
In the same order, the values of `O=C(C1CCCCC1O)N1CCC(c2ccc(-c3cn[nH]c3)cc2F)CC1` (single isomer, unassigned) [Compound 149b, (4-(2-fluoro-4-(1H-pyrazol-4-yl)phenyl)piperidin-1-yl)(2-hydroxycyclohexyl) methanone] are 47.54% and 83.42%.
For `O=C(Nc1ccccc1)C1CCN(c2ccc(-c3cn[nH]c3)cc2)CC1` [Compound 58, 1-(4-(1H-pyrazol-4-yl)phenyl)-N-phenylpiperidine-4-carboxamide], the IC50 (in general, the concentration that gives 50% inhibition) in series [1] is 1570 nM; in series [2], 16.6 nM. Also, the “RLM (% inh @ 500 nM)” value in series [3] turned out to be 44.45%.
On to `O=C(N1CCCC1)N1CCC(c2ccc(-c3cn[nH]c3)c(F)c2F)CC1` [Compound 71, (4-(2,3-difluoro-4-(1H-pyrazol-4-yl)phenyl)piperidin-1-yl)(pyrrolidin-1-yl) methanone], for which, in series [4], the “absorption and blood exposure after oral administration (in words)” value (“absorption and blood exposure” below) was “well absorbed and exhibit high blood exposure”; the AUC(0-inf) (usually total exposure, with the tail of the curve extrapolated) worked out at 58000 ng·h/mL; the concentration peaked (Cmax) at 8730 ng/mL; the Tmax (usually the time at which the peak concentration occurs) came out at 2 h. Besides, in series [4], the half-life – broadly, the time needed for the level to fall by half in the phase considered – was 2.41 h and the AUC(0-t) was found to be 57900 ng·h/mL. In addition, the “RLM (% inh @ 500 nM)” value in series [3] was 75.13%. Further, in series [2], the IC50 stood at 19.7 nM and the “HLM (% inh @ 500 nM)” value is on record as 95.89%.
Turning to `O=C(CC1CCCC1)N1CCC(c2ccc(-c3cn[nH]c3)c(F)c2F)CC1` [Compound 93, 2-cyclopentyl-1-(4-(2,3-difluoro-4-(1H-pyrazol-4-yl)phenyl)piperidin-1-yl)ethan-1-one], the IC50 in series [1] amounted to 296 nM. Moreover, the “RLM (% inh @ 500 nM)” value in series [3] is 80.86%. In addition, in series [2], the “HLM (% inh @ 500 nM)” value was 91.77%.
As for `O=C(C1CCCC1)N1CCC(c2ccc(-c3cn[nH]c3)c(F)c2F)CC1` [Compound 98, cyclopentyl(4-(2,3-difluoro-4-(1H-pyrazol-4-yl)phenyl)piperidin-1-yl) methanone], in series [4], the “absorption and blood exposure” value is “well absorbed and exhibit high blood exposure”; the AUC(0-inf) was found to be 98600 ng·h/mL; the peak level (Cmax) was 8700 ng/mL; the Tmax stood at 3 h. Moreover, in series [4], the half-life was 2.38 h and the AUC(0-t) was found to be 98400 ng·h/mL. In series [3], inhibition was half-maximal at 9.68 nM (IC50). In addition, in series [2], inhibition was half-maximal at 22 nM (IC50) and the “HLM (% inh @ 500 nM)” value came to 96.23%.
With `C[C@@H]1CN(c2ccc(-c3cn[nH]c3)c(F)c2F)CCN1C(=O)N1CCCC1` [Compound 103, (R)-(4-(2,3-difluoro-4-(1H-pyrazol-4-yl)phenyl)-2-methylpiperazin-1-yl)(pyrrolidin-1-yl) methanone], the IC50 in series [1] is 743 nM; in series [2], 12 nM. In addition, the “RLM (% inh @ 500 nM)” value in series [3] was 74.73%. Moreover, the “HLM (% inh @ 500 nM)” value in series [2] is listed as 80.55%.
Regarding `O=C(CCCCCc1ccccc1)NCC1CCN(c2ccc(-c3cn[nH]c3)cc2)CC1` [Compound 113, N-((1-(4-(1H-pyrazol-4-yl)phenyl)piperidin-4-yl)methyl)-6-phenylhexanamide], in series [4], the “absorption and blood exposure” value is “well absorbed and exhibit high blood exposure”; the AUC(0-inf) came to 10100 ng·h/mL; the Cmax (commonly the peak of the concentration-time curve) amounted to 2420 ng/mL; the Tmax is 1.33 h. Further, in series [4], the half-life is 2.93 h and the AUC(0-t) was 10100 ng·h/mL. Moreover, in series [3], half-maximal inhibition (IC50) required 15.5 nM and the “RLM (% inh @ 500 nM)” value is 57.83%. For the same compound, in series [2], the midpoint of inhibition, the IC50, lay at 20.6 nM and the “HLM (% inh @ 500 nM)” value is reported as 87.72%.
Consider `O=C(N1CCN(c2ccc(-c3cn[nH]c3)cc2F)CC1)C1(O)CCCCC1` [Compound 132, (4-(2-fluoro-4-(1H-pyrazol-4-yl)phenyl)piperazin-1-yl)(1-hydroxycyclohexyl) methanone], for which the IC50 in series [1] came to 2420 nM; in series [2], 25.6 nM.
In series [1], `O=C(N1CCC(c2ccc(-c3cn[nH]c3)cc2F)CC1)N1Cc2ccccc2C1` [Compound 136, (4-(2-fluoro-4-(1H-pyrazol-4-yl)phenyl)piperidin-1-yl)(isoindolin-2-yl) methanone] returned an IC50 of 664 nM. In series [2], inhibition was half-maximal at 19.4 nM (IC50) and the “HLM (% inh @ 100 nM)” value came to 87.34%.
As to `O=C(N1CCC(c2ccc(-c3cn[nH]c3)cc2F)CC1)C1(O)CCCCC1` [Compound 140, (4-(2-fluoro-4-(1H-pyrazol-4-yl)phenyl)piperidin-1-yl)(1-hydroxycyclohexyl) methanone], the IC50 was found to be 1520 nM in series [1] and 17.6 nM in series [2].
For `O=C(N1CCC(c2ccc(-c3cn[nH]c3)cc2F)CC1)C1(F)CCCCC1` [Compound 141, (4-(2-fluoro-4-(1H-pyrazol-4-yl)phenyl)piperidin-1-yl)(1-fluorocyclohexyl) methanone], the “MLM (% inh @ 1000 nM)” value in series [1] is listed as 59.36%. The “HLM (% inh @ 100 nM)” value in series [2] is 88.15%.
Take `O=C(C1CCOC1)N1CCC(c2ccc(-c3cn[nH]c3)cc2F)CC1` (stereo not shown) [Compound 144, (4-(2-fluoro-4-(1H-pyrazol-4-yl)phenyl)piperidin-1-yl)(tetrahydrofuran-3-yl) methanone]: in series [1], the “MLM (% inh @ 1000 nM)” value is reported as 60.66%. Moreover, the “HLM (% inh @ 100 nM)” value in series [2] worked out at 87.74%.
Turning to `COC1(C(=O)N2CCC(c3ccc(-c4cn[nH]c4)cc3)CC2)CCCCC1` [Compound 150, (4-(4-(1H-pyrazol-4-yl)phenyl)piperidin-1-yl)(1-methoxycyclohexyl) methanone], the “MLM (% inh @ 1000 nM)” value in series [1] worked out at 40.18%. Besides, the “HLM (% inh @ 100 nM)” value in series [2] was 84.56%.
As for `CC(C)(O)CNC(=O)N1CCC(c2ccc(-c3cn[nH]c3)cc2F)CC1` [Compound 152, 4-(2-fluoro-4-(1H-pyrazol-4-yl)phenyl)-N-(2-hydroxy-2-methylpropyl)piperidine-1-carboxamide], in series [1], the “MLM (% inh @ 1000 nM)” value is listed as 48.10%. Further, the “HLM (% inh @ 100 nM)” value in series [2] is given as 88.49%.
As to `O=C(C1CCN(c2ccc(-c3cn[nH]c3)cc2F)CC1)N1CC2CCCC2C1` (stereo not shown) [Compound 153, (1-(2-fluoro-4-(1H-pyrazol-4-yl)phenyl)piperidin-4-yl)(hexahydrocyclopenta[c]pyrrol-2 (1H)-yl) methanone], in series [4], the “absorption and blood exposure” value is “well absorbed and exhibit high blood exposure”; the AUC(0-inf) is 566000 ng·h/mL; the Cmax is 75200 ng/mL; the Tmax turned out to be 2 h. In series [4], the half-life was 3.26 h and the AUC(0-t) turned out to be 558000 ng·h/mL. This compound also displayed an IC50 in series [3] of 361 nM. Besides, in series [2], half-maximal inhibition (IC50) was put at 32.4 nM and the “HLM (% inh @ 100 nM)” value stood at 74.69%.
Take `O=C1CCCCCN1CC1CCN(c2ccc(-c3cn[nH]c3)cc2F)CC1` [Compound 161, 1-((1-(2-fluoro-4-(1H-pyrazol-4-yl)phenyl)piperidin-4-yl)methyl) azepan-2-one]: the “MLM (% inh @ 1000 nM)” value in series [1] came to 59.36%. Further, the “HLM (% inh @ 100 nM)” value in series [2] worked out at 86.45%.
